EC50 data for two compounds are collected here from patent US9133115B2 (ACHILLION PHARMACEUTICALS, INC., priority 2008, dated 2015).

This assay relates to HCV replicon. In words: HCV replicon replication assay (NPT ELISA) in Huh-7 replicon-containing cells. It counts as cell-based. As to conditions: Hepatitis C virus, 72 h; HCV replicon in Huh-7 cells, three days incubation; read-out: EC50. In a few lines:
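Huh-7 cells carrying a bicistronic HCV replicon (HCV-IRES-neo, EMCV-IRES-driven NS3–NS5B, 3′-NTR) were seeded at 6000-7500 cells/well, grown 24 h to 60-70% confluence, then treated with graded compound concentrations. Replication was read as NPT level by capture ELISA (rabbit anti-NPTII, Eu-N1 secondary); interferon alpha served as positive control.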
For orientation: In antiviral work, replicon cells carry a viral genome segment that copies itself.

In the case of `C=CC1C[C@]1(NC(=O)[C@@H]1C[C@@H](Oc2cc(-c3csc(C(C)C)n3)nc3c(C)c(OC)ccc23)CN1C(=O)[C@@H](CC(=O)N1CCCC(F)(F)C1)C(C)(C)C)C(=O)NS(=O)(=O)C1CC1` (stereo partly drawn) [Compound 254, (2S,4R)-1-((S)-2-tert-butyl-4-(3,3-difluoropiperidin-1-yl)-4-oxobutanoyl)-N-((1R)-1-(cyclopropyl-sulfonylcarbamoyl)-2-vinylcyclopropyl)-4-(2-(2-isopropylthiazol-4-yl)-7-methoxy-8-methylquinolin-4-yloxy)pyrrolidine-2-carboxamide], the EC50 (in general, the concentration needed to bring the measured effect to its halfway point) was under 1000 nM.
For the compound `C=C[C@@H]1C[C@]1(NC(=O)[C@@H]1C[C@@H](Oc2cc(-c3nc(C(C)C)cs3)nc3c(C)c(OC)ccc23)CN1C(=O)[C@@H](CC(=O)N1CCCCC1)C(C)(C)C)C(=O)NS(=O)(=O)C1CC1` [Compound 255, (2S,4R)-1-((S)-2-tert-butyl-4-oxo-4-(piperidin-1-yl)butanoyl)-N-((2S)-1-(cyclopropyl-sulfonylcarbamoyl)-2-vinylcyclopropyl)-4-(2-(4-isopropylthiazol-2-yl)-7-methoxy-8-methylquinolin-4-yloxy)pyrrolidine-2-carboxamide], the EC50 is under 1000 nM.
